Values after ≈ are worked out from the molar mass of the structure shown.
Experiments:
[1] = test system: human-derived osteosarcoma cell line MG-63; experiment: Cytotoxicity evaluation, relative cell metabolic activity (CellTiter-Blue), MG-63; type: cell-based; details: 24 h, mean ± SD; for viability at 10 µM / viability at 25 µM / viability at 50 µM: Homo sapiens, read-out: Relative metabolic activity of MG-63 cells; for viability at 10 µM: MG-63, 10 µM; for viability at 25 µM: MG-63, 25 µM; for viability at 50 µM: MG-63, 50 µM
Experimental: (§1) All target compounds were studied to determine their cytotoxic activity at various concentrations of each compound (10–50 µM) against human-derived osteosarcoma cell line MG-63 (ATCC, CRL-1427) and mouse-derived preosteoblast cell line MC3T3-E1 (ATCC, CRL-2593) (Table 4 and Figures S1-S4 in the Supporting Information). For the comparison, naturally occurring betulinic, oleanolic (1b) and ursolic (1c) acids as well as their 3-oxo analogs 2a-c and doxorubicin, were also subjected to the cytotoxicity tests.
(§2) Cytotoxicity of betulinic acid, ursolic acid and oleanolic acid derivatives was evaluated using human-derived osteosarcoma cell line MG63 (ATCC, CRL-1427) and mouse-derived preosteoblast cell line MC3T3-E1 (ATCC CRL-2593). Before conducting the experiments, both cell lines were continuously cultured according to the ATCC product sheet instructions. Briefly, both cell lines were expanded in α-MEM medium supplemented with 10% FBS and 1% pen-strep and maintained at 37 °C in a humidified atmosphere with 5% CO2.
(§3) Each cell line was plated at a concentration of 1 × 10^4 cells/well in 96-well plate. The plates were incubated for 24 h to allow cell attachment and growth. Bioactive substances were solubilized in methanol prior further dilution in cell culture media. Following the cell incubation period, the culture media was removed and the dilutions of active substance (10, 25 and 50 µM) in cell culture media were added. The culture medium only and its dilutions with methanol solution respective to the bioactive substance concentrations were used as the controls. […] Cells were treated with bioactive substance solutions for 24 h. After 24 h incubation, relative cell metabolic activity was assessed using CellTiter-Blue® (CTB) analysis (Promega, JAV). […] was measured at 590 nm using microplate reader (Infinite® 200 PRO, Tecan, USA). The relative cell metabolic activity was calculated for each bioactive substance concentration as well as for the controls. […] Statistically significant differences between sample groups are assessed using a one-way ANOVA test and then corrected using the Šídák multiple comparison test. Statistically significant differences were considered to be those with a P-values less than 0.05 (p < 0.05).
as §2, with “10 %” for “10%”, “1 %” for “1%”, “5 %” for “5%”
(§4) […]

[2] = test system: mouse-derived preosteoblast cell line MC3T3-E1; experiment: Cytotoxicity evaluation, relative cell metabolic activity (CellTiter-Blue), MC3T3-E1; type: cell-based; details: 24 h, mean ± SD; for viability at 10 µM / viability at 25 µM / viability at 50 µM: Mus musculus, read-out: Relative metabolic activity of MC3T3-E1 cells; for viability at 10 µM: MC3T3-E1, 10 µM; for viability at 25 µM: MC3T3-E1, 25 µM; for viability at 50 µM: MC3T3-E1, 50 µM
Experimental: as §1, §2, §3
as §2, with “10 %” for “10%”, “1 %” for “1%”, “5 %” for “5%”
as §4

[3] = Water solubility determination by quantitative 1H-NMR in D2O; type: physicochemical; details: D2O adjusted with NaOD, aqueous buffer, thermodynamic from solid; qNMR in D2O, pH 8.0-8.5 (NaOD), room temperature, potassium hydrogen phthalate external standard
Excerpt: The obtained PCT-derived sodium phosphonates were subjected to water solubility tests (Table 3). For this purpose, we used a quantitative ^1H-NMR approach in D2O, using potassium hydrogen phthalate as an external standard (for experimental details see Supporting Information). The presence of the basic forms of phosphonates[80] was ensured by the careful addition of NaOD, maintaining pH 8.0–8.5 during the quantification, which is 2–3 units higher than the pKa of phosphonic acid disalt. […] This is by at least two to three orders of magnitude higher than the reported solubilities of the parent natural triterpenic acids. […] Indeed, phosphonic acids are more acidic and easier ionizable than carboxylic acids. This ionic character helps to increase the aqueous solubility as exemplified by here described compounds.
Water solubility determination
To suspension of PCT phosphonate sample (10 mg) in D2O (500 µL) 0.8% solution of NaOD in D2O was added dropwise until pH = 8-8.5 (<100 µL). Obtained suspension was sonified in ultrasonic bath for 10 min. Undissolved particles were separated by centrifugation. Clear D2O solution was carefully transferred to NMR tube equipped with external standard vial.
Formula (1) was used to determine the solubility of PCT sample in the D2O.
[…]
SolPCT - solubility of PCT sample in D2O at room temperature (mg/mL)
IPCT - integral value of PCT signal of choice
Ist - integral value of external standard signal of choice
NPCT - number of integrated protons of PCT
Nst - number of integrated protons of external standard
V - volume of used D2O (mL) mst - mass of external standard (mg)
Mbet - molecular weight of PCT (g•mol−1)
Mst - molecular weight of external standard - potassium hydrogen phthalate (204.22 […]
Wst - assay of the external standard (99.5 %)

[4] = cited from earlier work

Compound | viability at 10 µM [1] [%] | viability at 25 µM [1] [%] | viability at 50 µM [1] [%] | viability at 10 µM [2] [%] | viability at 25 µM [2] [%] | viability at 50 µM [2] [%] | solubility at 10 min [3] [µg/mL] | Solubility in distilled water ([4]; distilled water) [µg/mL] | Aqueous solubility at neutral pH [4] [µg/mL] | Solubility in sodium phosphate solution ([4]; pH 11.4, sodium phosphate solution) [µg/mL] | Aqueous solubility at pH 11.8 [4] [µg/mL] | Aqueous solubility (in words) ([4]; compared with oleanolic and betulinic acids) | Relative metabolic activity of MG-63 cells ([1]; 10 µM) | Relative metabolic activity of MG-63 cells ([1]; 25 µM) | Relative metabolic activity of MG-63 cells ([1]; 50 µM) | Relative metabolic activity of MC3T3-E1 cells ([2]; 10 µM) | Relative metabolic activity of MC3T3-E1 cells ([2]; 25 µM) | Relative metabolic activity of MC3T3-E1 cells ([2]; 50 µM)
CC1(C)CCC2(C(=O)OCP(=O)([O-])[O-])CCC3(C)C(=CCC4C5(C)CCC(=O)C(C)(C)C5CCC43C)C2C1.[Na+].[Na+] (stereo not drawn) [7b] | 113 ± 8 | 132 ± 5 | 119 ± 5 | 131 ± 8 | 150 ± 4 | 104 ± 5 | 8000 |  |  |  |  |  |  |  |  |  |  | 
CC1CCC2(C(=O)OCP(=O)([O-])[O-])CCC3(C)C(=CCC4C5(C)CCC(=O)C(C)(C)C5CCC43C)C2C1C.[Na+].[Na+] (stereo not drawn) [7c] | 96 ± 4 | 98 ± 4 | 112 ± 3 | 91 ± 6 | 90 ± 3 | 94 ± 5 | 26000 |  |  |  |  |  |  |  |  |  |  | 
C=C(C)C1CCC2(C(=O)OCP(=O)([O-])[O-])CCC3(C)C(CCC4C5(C)CCC(O)C(C)(C)C5CCC43C)C12.[Na+].[Na+] (stereo not drawn) [8a] | 158 ± 5 | 124 ± 25 | 159 ± 17 | 108 ± 5 | 119 ± 4 | 101 ± 5 | 3000 |  |  |  |  |  |  |  |  |  |  | 
CC1(C)CCC2(C(=O)OCP(=O)([O-])[O-])CCC3(C)C(=CCC4C5(C)CCC(O)C(C)(C)C5CCC43C)C2C1.[Na+].[Na+] (stereo not drawn) [8b] |  |  |  |  |  |  | 7000 |  |  |  |  |  |  |  |  |  |  | 
C=C(C)[C@@H]1CC[C@]2(C(=O)O)CC[C@]3(C)[C@H](CC[C@@H]4[C@@]5(C)CC[C@H](O)C(C)(C)[C@@H]5CC[C@]43C)[C@@H]12 [Betulinic acid] | 74 ± 16 | 91 ± 14 | 112 ± 8 | 76 ± 7 | 56 ± 4 | 97 ± 7 |  | 0.021 (≈ 0.046 µM) | < 0.1 | 40.1 (≈ 87.8 µM) | 42.1 |  |  |  |  |  |  | 
C=C(C)[C@@H]1CC[C@]2(C(=O)O)CC[C@]3(C)[C@H](CC[C@@H]4[C@@]5(C)CCC(=O)C(C)(C)[C@@H]5CC[C@]43C)[C@@H]12 [Betulonic acid (2a), Betulonic acid] | 114 ± 2 | 96 ± 4 | 88 ± 8 | 139 ± 6 | 170 ± 5 | 122 ± 1 |  |  |  |  |  |  |  |  |  |  |  | 
COc1cccc2c1C(=O)c1c(O)c3c(c(O)c1C2=O)C[C@@](O)(C(=O)CO)C[C@@H]3O[C@H]1C[C@H](N)[C@H](O)[C@H](C)O1 [Doxorubicin] | 41 ± 2 | 19 ± 1 | 16 ± 2 | 72 ± 7 | 60 ± 3 | 53 ± 3 |  |  |  |  |  |  |  |  |  |  |  | 
CC1(C)CC[C@]2(C(=O)O)CC[C@]3(C)C(=CC[C@@H]4[C@@]5(C)CC[C@H](O)C(C)(C)[C@@H]5CC[C@]43C)[C@@H]2C1 [Oleanolic acid (1b), Oleanolic acid] | 77 ± 14 | 158 ± 13 | 129 ± 11 | 104 ± 7 | 97 ± 8 | 96 ± 5 |  |  | < 0.1 |  | 99.5 |  |  |  |  |  |  | 
CC1(C)CC[C@]2(C(=O)O)CC[C@]3(C)C(=CC[C@@H]4[C@@]5(C)CCC(=O)C(C)(C)[C@@H]5CC[C@]43C)[C@@H]2C1 [Oleanonic acid (2b), Oleanonic acid] | 151 ± 8 | 160 ± 3 | 103 ± 18 | 110 ± 1 | 99 ± 5 | 49 ± 12 |  |  |  |  |  |  |  |  |  |  |  | 
C[C@H]1[C@H](C)CC[C@]2(C(=O)O)CC[C@]3(C)C(=CC[C@@H]4[C@@]5(C)CC[C@H](O)C(C)(C)[C@@H]5CC[C@]43C)[C@H]12 [Ursolic acid (1c), Ursolic acid] | 66 ± 3 | 64 ± 3 | 28 ± 4 | 106 ± 5 | 83 ± 5 | 99 ± 8 |  |  |  |  |  | similarly low aqueous solubility |  |  |  |  |  | 
C[C@H]1[C@H](C)CC[C@]2(C(=O)O)CC[C@]3(C)C(=CC[C@@H]4[C@@]5(C)CCC(=O)C(C)(C)[C@@H]5CC[C@]43C)[C@H]12 [Ursonic acid (2c), Ursonic acid] | 76 ± 8 | 67 ± 4 | 67 ± 4 | 74 ± 2 | 107 ± 7 | 72 ± 9 |  |  |  |  |  |  |  |  |  |  |  | 
C=C(C)[C@@H]1CC[C@]2(COCP(=O)([O-])[O-])CC[C@]3(C)[C@H](CC[C@@H]4[C@@]5(C)CC[C@H](OCP(=O)([O-])[O-])C(C)(C)[C@@H]5CC[C@]43C)[C@@H]12.[Na+].[Na+].[Na+].[Na+] [compound 12, Sodium (lup-20(29)-en-(3 S)-3,28-diylbis(oxymethylene))bis(phosphonate)] | 97 ± 8 | 89 ± 5 | 94 ± 4 | 90 ± 7 | 93 ± 6 | 92 ± 4 | 3000 |  |  |  |  |  |  |  |  |  |  | 
Sodium (3-oxo-(17R)-17-28-norlup-20(29)-en)-2-oxoethyl-phosphonate [7a] |  |  |  |  |  |  |  |  |  |  |  |  | 1.10 ± 0.04 | 1.30 ± 0.06 | 1.09 ± 0.04 | 1.41 ± 0.01 | 1.27 ± 0.05 | 1.13 ± 0.03

Source: publication PMC11564732, “Synthesis and preliminary cytotoxicity evaluation of water soluble pentacyclic triterpenoid phosphonates” (Scientific Reports, 2024)
